Reference: publication PMC9814544 (Communications Chemistry, 2020)
“And” between values parts separate entries of the source, which are not always exact repeats. Equal values may be shown once.

Tests used:
[1] = target: T1, human HDL scavenger receptor class B type I (SR-BI) (Homo sapiens, UniProt Q8WTV0); assay: SR-B1 cellular oxLDL uptake counter screen (CHO-Trex-hSR-B1); type: cell-based
T1 construct: expressed in transfected cells; host or cells: CHO T-REx (CHO-Trex-hSR-B1 cell line)
T1 sequence (Q8WTV0 1-509 isoform Q8WTV0-2): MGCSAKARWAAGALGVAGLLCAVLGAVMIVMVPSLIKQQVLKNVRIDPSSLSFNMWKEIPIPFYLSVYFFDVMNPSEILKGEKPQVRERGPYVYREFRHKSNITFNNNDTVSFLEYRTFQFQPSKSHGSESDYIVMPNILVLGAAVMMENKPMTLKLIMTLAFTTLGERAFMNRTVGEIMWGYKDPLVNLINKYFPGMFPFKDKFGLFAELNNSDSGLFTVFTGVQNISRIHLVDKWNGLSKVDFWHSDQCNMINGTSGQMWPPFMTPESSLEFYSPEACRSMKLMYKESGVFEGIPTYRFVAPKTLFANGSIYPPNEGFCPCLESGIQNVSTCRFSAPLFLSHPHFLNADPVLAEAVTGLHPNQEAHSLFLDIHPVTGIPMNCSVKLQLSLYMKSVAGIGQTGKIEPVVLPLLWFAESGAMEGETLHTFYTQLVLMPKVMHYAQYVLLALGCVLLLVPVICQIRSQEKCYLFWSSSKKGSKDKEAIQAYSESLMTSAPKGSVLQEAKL
Description: To identify small molecule inhibitors of LOX-1 mediated oxLDL uptake we developed a cellular high throughput screening (HTS) assay. Small molecule compounds were screened for their ability to block the uptake of AlexaFluor594 (AF594)-labeled human oxLDL into a CHO-K1 cell line with inducible expression of the human LOX-1 receptor. This readout was visualized and images were quantified by fluorescence microscopy (Fig. 1a). As positive controls, cells without induction of LOX-1 as well as a blocking anti-LOX-1 antibody[29] was used (Fig. 1b). More than one million different compounds were screened. Lead-like compounds (molecular weight above 270 Da) were tested at a concentration of 5 µg/ml, whereas a fragment subset (molecular weight below 270 Da) was tested at a tenfold higher concentration to ensure detection of more weakly active but ligand-efficient fragment-like compounds. Employing a hit criterion of lower than 50% of control, a hit rate of 2.8% was observed (Supplementary Fig. 1). These hits were further confirmed by performing two independent assay runs with fresh compound samples, resulting in a confirmation rate of 80% and a confirmed hit rate of 2.2% (Supplementary Fig. 2). To filter out unspecific or false-positive hits, a counter screen was developed and applied for testing the primary hits[30]–[32]. […]

[2] = Metabolic stability in rat liver microsomes; type: in vitro ADME; conditions: in vitro clearance as % hepatic blood flow, n = 1
Procedure: The metabolic degradation of the test compound is assayed at 37 °C with microsomes. The final incubation volume of 100 µl per time point contains TRIS buffer pH 7.6 at RT (0.1 M), magnesium chloride (5 mM), microsomal protein (1 mg/ml or 0.5 mg/ml depending on species) and the test compound at a final concentration of 1 µM.
Following a short preincubation period at 37 °C, the reactions were initiated by addition of beta-nicotinamide adenine dinucleotide phosphate, reduced form (NADPH, 1 mM) and terminated by transfering an aliquot into solvent after different time points. The quenched incubations are pelleted by centrifugation (10000 g, 5 min). An aliquot of the supernatant is assayed by LC-MS/MS for the amount of parent compound. The slope of the semi logarithmic plot of the concentration-time profile determines the half-life. The clearance is calculated by upscaling considering the amount of protein in the incubation, microsomal recovery and liver weight and normalized to the hepatic blood flow of the respective species. The number of experiments for BI-0115 is n = 1.

## CCCN1C(=O)c2ccc(Cl)cc2Nc2ncccc21 [BI-0115]
[1]; eight independent measurements 1-8, Supplementary Table 2, read-out: IC50 on SR-B1, individual measurements
  IC50: 88.8 µM and > 54.2 µM and > 100 µM (4×) and > 172 µM (2×)
[1]; in words
  activity in the SR-B1 assay: no activity
[2]
  micr. Stab rLM: 95 %QH
